{"source": "paper PMC7929976", "about": "“Eriodictyol as a Potential Candidate Inhibitor of Sortase A Protects Mice From Methicillin-Resistant Staphylococcus aureus-Induced Pneumonia” (Frontiers in Microbiology, 2021)", "target": "T1, Sortase A (SrtA) (Staphylococcus aureus, UniProt Q2FV99)", "T1 construct": "pET28a-SrtA, recombinant, nickel-purified", "T1 sequence (Q2FV99 whole entry)": "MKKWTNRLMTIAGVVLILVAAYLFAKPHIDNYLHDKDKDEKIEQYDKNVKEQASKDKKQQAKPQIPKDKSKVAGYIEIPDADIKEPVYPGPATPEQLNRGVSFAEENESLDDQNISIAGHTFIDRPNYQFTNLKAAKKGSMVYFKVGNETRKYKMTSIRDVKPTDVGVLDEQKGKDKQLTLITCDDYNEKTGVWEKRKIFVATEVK", "assay": "FRET cleavage assay with purified recombinant SrtA; reversible by dilution; binding supported by fluorescence quenching (KA […] L/mol)", "format": "biochemical", "data": [{"smiles": "O=C1C[C@@H](c2ccc(O)c(O)c2)Oc2cc(O)cc(O)c21", "note": "[eriodictyol]", "values": [{"measurement": "IC50", "value": 7.73, "unit": "µM"}]}]}
